ChEMBL document CHEMBL5137113, “Identification of Nitric Oxide-Donating Ripasudil Derivatives with Intraocular Pressure Lowering and Retinal Ganglion Cell Protection Activities” (J Med Chem, 2022)
pIC50: −log10 of the molar value. Activity calls are given as the source filed them.

How the values were obtained:
[1] = biological target: Rho-associated protein kinase 2 (Homo sapiens, UniProt O75116); assay: Inhibition of ROCK2 (unknown origin) using biotin as substrate incubated for 1 hr by HTRF assay
Rho-associated protein kinase 2, sequence (O75116 whole entry): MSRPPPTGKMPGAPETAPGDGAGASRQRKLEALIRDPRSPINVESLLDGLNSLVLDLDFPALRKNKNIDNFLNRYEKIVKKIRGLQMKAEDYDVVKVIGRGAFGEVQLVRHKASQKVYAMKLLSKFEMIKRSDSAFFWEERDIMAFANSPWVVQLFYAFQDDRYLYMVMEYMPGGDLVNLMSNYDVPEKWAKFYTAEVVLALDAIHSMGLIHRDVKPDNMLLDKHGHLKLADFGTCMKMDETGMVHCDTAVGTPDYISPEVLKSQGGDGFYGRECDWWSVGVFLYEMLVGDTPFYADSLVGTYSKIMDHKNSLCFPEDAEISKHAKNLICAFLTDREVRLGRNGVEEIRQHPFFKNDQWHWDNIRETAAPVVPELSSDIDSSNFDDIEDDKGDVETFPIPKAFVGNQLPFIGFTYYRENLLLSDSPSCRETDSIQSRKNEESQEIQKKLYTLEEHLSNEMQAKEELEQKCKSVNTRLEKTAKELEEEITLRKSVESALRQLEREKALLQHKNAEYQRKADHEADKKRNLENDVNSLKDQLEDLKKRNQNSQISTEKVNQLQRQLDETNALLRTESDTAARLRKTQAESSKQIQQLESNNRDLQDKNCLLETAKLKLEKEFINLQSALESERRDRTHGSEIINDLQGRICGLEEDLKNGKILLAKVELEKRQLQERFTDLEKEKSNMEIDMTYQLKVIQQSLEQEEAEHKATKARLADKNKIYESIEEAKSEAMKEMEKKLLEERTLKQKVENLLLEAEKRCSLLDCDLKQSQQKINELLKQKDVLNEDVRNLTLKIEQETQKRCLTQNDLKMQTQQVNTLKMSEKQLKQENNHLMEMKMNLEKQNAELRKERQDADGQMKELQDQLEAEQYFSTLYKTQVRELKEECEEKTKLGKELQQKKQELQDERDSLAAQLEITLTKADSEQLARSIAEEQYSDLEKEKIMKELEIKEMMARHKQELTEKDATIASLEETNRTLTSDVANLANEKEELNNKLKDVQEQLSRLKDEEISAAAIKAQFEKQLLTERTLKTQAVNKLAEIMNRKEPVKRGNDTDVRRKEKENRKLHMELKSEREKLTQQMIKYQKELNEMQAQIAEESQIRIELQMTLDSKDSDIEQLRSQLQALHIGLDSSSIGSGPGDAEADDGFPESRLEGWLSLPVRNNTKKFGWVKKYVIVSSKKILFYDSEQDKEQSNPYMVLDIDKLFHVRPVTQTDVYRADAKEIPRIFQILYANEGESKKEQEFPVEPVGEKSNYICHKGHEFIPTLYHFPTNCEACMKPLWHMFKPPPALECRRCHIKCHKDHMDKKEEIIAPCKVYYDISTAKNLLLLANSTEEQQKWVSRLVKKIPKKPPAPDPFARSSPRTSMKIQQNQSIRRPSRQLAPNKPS

HTM [2] = assay: Inhibtion of mitochondrial respiration in HTM cells assessed as oxygen consumption rate by measuring decrease in basal respiration at 10 uM incubated for 1 hr by Seahorse XF24 extracellular flux analyzer; assay type: functional, cell-based; details: Homo sapiens
HTM [3] = assay: Effect on MLC expression in HTM cells assessed as reduction in phosphorylated MLC/MLC ratio at 10 uM incubated for 1 hr by densitometry analysis; assay type: functional, cell-based; details: Homo sapiens
[4] = Ocular toxicity in C57BL/6J mouse assessed as effect on conjunctival hyperemia at 0.2% solution administered via topical instillation and measured at 1 to 4 hrs post instillation; details: in vivo, topical_or_ocular, time 1-4 hrs, route top
HTM [5] = assay: Inhibtion of mitochondrial respiration in HTM cells assessed as oxygen consumption rate by measuring decrease in ATP production at 10 uM incubated for 1 hr by Seahorse XF24 extracellular flux analyzer; assay type: functional, cell-based; details: Homo sapiens
HTM [6] = assay: Induction of reversible F-actin depolymerization in HTM cells assessed as irregular arrangement of fiber bundles at 10 uM incubated for 1 hr and further incubated for 4 hrs in drug free medium by rhodamine phalloidin staining based confocal scanning microscopic analysis; assay type: cell-based; details: Homo sapiens
Mus musculus [7] = assay: Antiglaucoma activity in microspheres induced chronic ocular hypertension C57BL/6J mouse model assessed as reduction in intraocular pressure at 0.2% solution administered via topical instillation for three times per day and measured at 1 to 6 hrs post instillation by ophthalmotonometer; assay type: functional, organism-based; details: route top, time 1-6 hrs
HTM [8] = assay: Downregulation of phosphorylated MLC expression in HTM cells at 10 uM incubated for 1 hr by Western blotting analysis; assay type: functional, cell-based; details: Homo sapiens
HTM [9] = assay: Effect of compound on intracellular cGMP concentration in HTM cells assessed as increase in cGMP level at 10 uM incubated for 24 hrs by ELISA; assay type: functional, cell-based; details: Homo sapiens
HTM [10] = assay: Induction of NO release in HTM cells assessed as increase in positive area by DAF-FM DA dye based flow cytometry analysis; assay type: functional, cell-based; details: Homo sapiens
HTM [11] = assay: Induction of NO release in HTM cells assessed as increase in fluorescence intensity by DAF-FM DA dye based flow cytometry analysis; assay type: functional, cell-based; details: Homo sapiens
[12] = biological target: Rho-associated protein kinase 1 (Homo sapiens, UniProt Q13464); assay: Inhibition of ROCK1 (unknown origin) using biotin as substrate incubated for 1 hr by HTRF assay
Rho-associated protein kinase 1, sequence (Q13464 whole entry): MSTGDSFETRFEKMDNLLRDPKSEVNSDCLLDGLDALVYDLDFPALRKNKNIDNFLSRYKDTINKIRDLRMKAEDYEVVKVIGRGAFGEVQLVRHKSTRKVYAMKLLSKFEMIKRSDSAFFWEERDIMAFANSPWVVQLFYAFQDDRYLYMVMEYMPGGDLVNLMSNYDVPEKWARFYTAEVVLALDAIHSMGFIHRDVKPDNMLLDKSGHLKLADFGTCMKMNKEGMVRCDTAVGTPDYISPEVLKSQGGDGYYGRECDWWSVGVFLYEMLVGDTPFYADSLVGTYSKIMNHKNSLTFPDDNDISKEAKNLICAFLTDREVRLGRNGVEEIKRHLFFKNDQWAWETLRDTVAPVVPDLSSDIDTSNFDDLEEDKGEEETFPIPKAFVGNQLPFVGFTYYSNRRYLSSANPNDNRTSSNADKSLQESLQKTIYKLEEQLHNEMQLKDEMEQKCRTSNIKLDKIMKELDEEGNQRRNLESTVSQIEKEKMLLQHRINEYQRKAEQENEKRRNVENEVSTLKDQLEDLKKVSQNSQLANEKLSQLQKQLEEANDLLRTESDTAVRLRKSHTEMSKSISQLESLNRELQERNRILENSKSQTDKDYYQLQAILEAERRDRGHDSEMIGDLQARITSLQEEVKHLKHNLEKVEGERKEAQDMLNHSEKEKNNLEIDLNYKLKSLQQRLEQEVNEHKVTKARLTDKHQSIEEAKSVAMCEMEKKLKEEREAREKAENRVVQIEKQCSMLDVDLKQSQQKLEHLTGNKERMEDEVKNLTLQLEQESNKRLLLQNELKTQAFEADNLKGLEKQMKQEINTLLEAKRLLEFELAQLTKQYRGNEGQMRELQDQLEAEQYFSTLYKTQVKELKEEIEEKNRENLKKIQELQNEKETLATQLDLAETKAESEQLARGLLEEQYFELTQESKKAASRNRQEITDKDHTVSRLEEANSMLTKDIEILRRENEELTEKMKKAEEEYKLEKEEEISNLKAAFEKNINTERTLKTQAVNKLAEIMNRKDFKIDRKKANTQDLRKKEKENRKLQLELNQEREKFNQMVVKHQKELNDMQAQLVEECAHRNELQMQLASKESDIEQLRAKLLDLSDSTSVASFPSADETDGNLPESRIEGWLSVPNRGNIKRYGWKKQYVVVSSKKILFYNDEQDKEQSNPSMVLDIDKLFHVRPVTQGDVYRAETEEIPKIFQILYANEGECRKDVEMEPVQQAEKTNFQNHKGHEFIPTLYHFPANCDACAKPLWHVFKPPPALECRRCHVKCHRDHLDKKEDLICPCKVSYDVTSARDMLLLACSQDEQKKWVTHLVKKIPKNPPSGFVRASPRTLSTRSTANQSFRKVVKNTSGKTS

[13] = Ocular toxicity in New Zealand white albino rabbit assessed as effect on ocular irritation at 0.579% solution administered via topical instillation and measured at 1 to 4 hrs post instillation by draize's test; set-up: species or system Oryctolagus cuniculus; details: in vivo, topical_or_ocular, time 1-4 hrs, route top
[14] = Ocular toxicity in C57BL/6J mouse assessed as effect on conjunctival hyperemia at 0.26% solution administered via topical instillation and measured at 1 to 4 hrs post instillation; details: in vivo, topical_or_ocular, time 1-4 hrs, route top
[15] = Ocular toxicity in C57BL/6J mouse assessed as effect on conjunctival hyperemia at 0.07% solution administered via topical instillation and measured at 1 to 4 hrs post instillation in presence of ripasudil; details: in vivo, topical_or_ocular, time 1-4 hrs, route top
Mus musculus [16] = assay: Antiglaucoma activity in microspheres induced chronic ocular hypertension C57BL/6J mouse model assessed as reduction in intraocular pressure at 0.07% solution administered via topical instillation for three times per day and measured at 1 to 6 hrs post instillation in presence of ripasudil by ophthalmotonometer; assay type: functional, organism-based; details: route top, time 1-6 hrs
HTM [17] = assay: Inhibtion of mitochondrial respiration in HTM cells assessed as oxygen consumption rate by measuring decrease in maximal respiration at 10 uM incubated for 1 hr by Seahorse XF24 extracellular flux analyzer; assay type: functional, cell-based; details: Homo sapiens
HTM [18] = assay: Inhibtion of mitochondrial respiration in HTM cells assessed as repression of oxygen consumption rate at 10 uM incubated for 1 hr by Seahorse XF24 extracellular flux analyzer; assay type: functional, cell-based; details: Homo sapiens
HTM [19] = assay: Inhibtion of mitochondrial respiration in HTM cells assessed as oxygen consumption rate by measuring decrease in coupling efficiency at 10 uM incubated for 1 hr by Seahorse XF24 extracellular flux analyzer; assay type: functional, cell-based; details: Homo sapiens
Mus musculus [20] = assay: Antiglaucoma activity in microspheres induced chronic ocular hypertension C57BL/6J mouse model assessed as reduction in contrast sensitivity threshold at 0.26% solution administered via topical instillation and measured after 10 days by optokinetic reflex test; assay type: functional, organism-based; details: route top, time 10.0 day
Mus musculus [21] = assay: Antiglaucoma activity in microspheres induced chronic ocular hypertension C57BL/6J mouse model assessed as reduction in intraocular pressure at 0.26% solution administered via topical instillation for three times per day and measured at 1 to 6 hrs post instillation by ophthalmotonometer; assay type: functional, organism-based; details: route top, time 1-6 hrs
HTM [22] = assay: Inhibtion of mitochondrial respiration in HTM cells assessed as oxygen consumption rate by measuring decrease in proton leak at 10 uM incubated for 1 hr by Seahorse XF24 extracellular flux analyzer; assay type: functional, cell-based; details: Homo sapiens
Mus musculus [23] = assay: Antiglaucoma activity in microspheres induced chronic ocular hypertension C57BL/6J mouse model assessed as increase in number of RGCs in retina at 0.26% solution administered via topical instillation and measured after 10 days by immunostaining based confocal microscopic analysis; assay type: functional, organism-based; details: route top, time 10.0 day
Mus musculus [24] = assay: Antiglaucoma activity in microspheres induced chronic ocular hypertension C57BL/6J mouse model assessed as increase in visual acuity under maximum contrast condition at 0.26% solution administered via topical instillation and measured after 10 days by optokinetic reflex test; assay type: functional, organism-based; details: route top, time 10.0 day

SMILES	pIC50 [1]	Activity (HTM [2])	Activity (HTM [3])	Activity (HTM [5])	Activity (HTM [6])	Activity (HTM [8])	Activity (HTM [9])	Activity (HTM [10])	Activity (HTM [11])	pIC50 [12]	also measured
C[C@H]1CNCCCN1S(=O)(=O)c1cccc2cncc(F)c12.Cl.O.O [RIPASUDIL HYDROCHLORIDE DIHYDRATE]	7.67	Active	Active	Active	Active	Active					Activity [4]: Non-Toxic; Activity (Mus musculus [7]): Active
C[C@H]1CN(C(=O)OCCCO[N+](=O)[O-])CCCN1S(=O)(=O)c1cccc2cncc(F)c12	7.60		Active		Active	Active	Active	Active	Active	6.98	
C[C@H]1CN(C(=O)OCCO[N+](=O)[O-])CCCN1S(=O)(=O)c1cccc2cncc(F)c12	7.23		Active		Active	Active	Active	Active	Active	7.33	
C[C@H]1CN(C(=O)OCCCCO[N+](=O)[O-])CCCN1S(=O)(=O)c1cccc2cncc(F)c12.Cl	7.78									7.47	Activity [13]: Non-Toxic; Activity [14]: Non-Toxic
O=[N+]([O-])OCCCCO											Activity [15]: Non-Toxic; Activity (Mus musculus [16]): Active
C[C@H]1CN(C(=O)O[C@@H]2CO[C@H]3[C@@H]2OC[C@@H]3O[N+](=O)[O-])CCCN1S(=O)(=O)c1cccc2cncc(F)c12	7.71		Active		Active	Active	Active	Active	Active	7.27	
C[C@H]1CN(C(=O)OCCCCO[N+](=O)[O-])CCCN1S(=O)(=O)c1cccc2cncc(F)c12 [listing 1 of 2 here]	7.32									7.23	
CCCCOC(=O)N1CCCN(S(=O)(=O)c2cccc3cncc(F)c23)[C@@H](C)C1		Active		Active							Activity (HTM [17]): Active; Activity (HTM [18]): Active
C[C@H]1CN(C(=O)OCCCCO[N+](=O)[O-])CCCN1S(=O)(=O)c1cccc2cncc(F)c12 [listing 2 of 2 here]		Active	Active	Active	Active	Active	Active	Active	Active		Activity (HTM [19]): Active; Activity (Mus musculus [20]): Active; Activity (Mus musculus [21]): Active; Activity (HTM [22]): Active; Activity (Mus musculus [23]): Active; Activity (HTM [17]): Active; Activity (HTM [18]): Active; Activity (Mus musculus [24]): Active
C[C@H]1CN(C(=O)OCCCCCO[N+](=O)[O-])CCCN1S(=O)(=O)c1cccc2cncc(F)c12	7.60		Active		Active	Active	Active	Active	Active	7.35	
